Like-named read-outs stand apart in the source and are kept apart here.

One may read the inhibition as the percentage by which the read-out fell short of the control. High values mean strong suppression, low ones little suppression. For orientation: IC50 means the point on the concentration scale where inhibition reaches its midpoint.

For test [1], the system named is A74 MVC treated week 21 virus (MVC.21). Briefly: Drug susceptibility assay (reverse transcriptase activity) in U87.CD4.CCR5 cells, MVC selected virus MVC.21. The test is classed as cell-based, HIV-1. Here is the method: (§1) (A) Virus A74 derived from passage control week 21 (PC.21) and MVC treated week 21 (MVC.21) cultures were used to infect U87.CD4.CCR5 cells in the presence of increasing concentrations of MVC. (B) These viruses were also used to infect U87.CD4.CCR5 cells in the presence of maximal inhibitory concentrations (10 μM) of CCR5 antagonists MVC and TAK-779 and fusion inhibitor enfuvirtide (T20). Reverse transcriptase activity was measured 7 days post infection. Percent infection was calculated relative to the no drug control for each virus. Data shown are means of triplicates with error bars representing standard deviations.
(§2) FIG. 15 illustrates a plot showing sensitivity to attachment inhibitor BMS-806. […] Reverse transcriptase activity was measured five days post infection and percent inhibition calculated based on the no drug condition. Data represents means of triplicates with standard deviations.
(§3) U87.CD4.CCR5 cells were plated in 96-well format (1×10^4 cells/well) for 24 hr. Cells were then treated for 2 hr with 5-fold dilutions of MVC (100 μM to 2×10^−6 μM) and then infected at a multiplicity of infection (MOI) of 0.001 infectious units (IU)/cell. All assays were performed in triplicate. After 24 hr, cells were washed in 1×PBS to remove free virus and media containing the appropriate MVC drug dilutions was added. Viral replication was measured daily by radio-labeled reverse transcriptase assay using a Packard beta counter to quantify counts per minute (cpm). Drug sensitivity curves were generated using non-linear regression curve fitting features of GraphPad Prism 5 software.

Test [2] concerns A74 passage control week 21 virus (PC.21). Briefly: Drug susceptibility assay (reverse transcriptase activity) in U87.CD4.CCR5 cells, passage control virus PC.21. The test is classed as cell-based, HIV-1. As to the method: as §1, §2, §3
Test [3] deals with gp120 chimeric virus clone MVC.21.132 (A74.MVC.21.132). Here is the method:
as §3
(§4) Gp120 chimeric viruses were cloned into an NL4-3 backbone from passage control and virus passaged in the presence of MVC escalations using the yeast homologous recombination-gap repair technique. From this point forward, the viruses and clones are referred to as […] (passage control) or MVC (maraviroc selected). 21 (number of passages). 1 (clone number) or PC.21.1 or MVC.21.1. The gp120 regions of the PC.1 (starting virus), PC.21 and MVC.21 viruses were PCR amplified using primers F_gp120 5′-[…]-3′ (SEQ ID NO: 1) and B_gp120 5′-[…]-3′ (SEQ ID NO: 2). Briefly, these gp120 PCR products were then co-transformed with a SacI-linearized pREC_NFL_Δgp120/URA3 into Saccharomyces cerevisiae MYA-906 cells (ATCC). Following homologous recombination, plasmids were extracted from the yeast cells and transformed into electrocompetent Escherichia coli Stbl4 cells (Invitrogen). Individual bacterial colonies were grown and plasmids were extracted using Qiagen miniprep kits. Chimeric pREC_NFL_gp120 plasmids were co-transfected into 293T cells (3×10^4 cells/well) along with the complementing plasmid pCMV_cplt using Fugene 6 reagent (Promega, Madison, Wis.) as described. Heterodiploid virus particles containing one copy of the NFL and cplt HIV-1 RNAs represent approximately half of the virus derived from 293T cell transfections and can be propagated on U87.CD4.CCR5 cells to produce replication competent virus with a complete virus genome. Virus stocks of each clone were titered as described above. The DNA sequences obtained in the course of this work were deposited in the GenBank/EMBL/DDBJ databases under the following accession numbers: env(gp120) (JX993942-JX993981).
For multiple replication cycle drug susceptibility assays, U87.CD4.CCR5 cells were plated as above and pretreated with 5-fold dilutions of MVC (100 μM to 2×10^−6 μM). Cells were infected at an MOI of 0.001 IU/cell with NL4-3/gp120 chimeric virus in quadruplicate. […] Reverse transcriptase activity in supernatant was monitored as previously described on days 4 through 7 post infection.

Test [4] concerns B6.PC.21 virus. Conditions: U87.CD4.CCR5. As to the method:
as §3
(§5) Reverse transcriptase (RT) activity was monitored in the cell-free supernatant for each weekly passage and inhibitor concentration increased when RT activity reached 2-fold over background.

The test system of test [5] is B6.MVC.21 virus. The settings on record: U87.CD4.CCR5. As to the method: as §3, §5
Test [6] deals with HIV-1 subtype A primary isolate A74. The settings on record: U87.CD4.CCR5; virus A74.
Test [7] concerns HIV-1 subtype B primary isolate B6. Conditions: read-out: mean IC50; U87.CD4.CCR5; virus B6. As to the method:
as §3
(§6) We assessed “intrinsic” susceptibilities of HIV-1 subtype A, B, and C primary isolates to maraviroc. Multiple cycle drug susceptibility assays were performed in U87.CD4.CCR5 cells in the presence of 5-fold decreasing concentrations of MVC starting at 100 μM.

The test system of test [8] is HIV-1 subtype C primary isolate C8. The settings on record: read-out: mean IC50; U87.CD4.CCR5; virus C8. Here is the method: as §3, §6
The subject of test [9] is HIV-1 subtype A primary isolate A74. Briefly: Multiple cycle drug sensitivity assay in PBMC, virus A74. The format is cell-based.
Test [10] concerns subtype B patient-derived MVC resistant virus R3. Conditions: clone R3; multiple cycle conditions. Here is the method:
For multiple replication cycle drug susceptibility assays, U87.CD4.CCR5 cells were plated as above and pretreated with 5-fold dilutions of MVC (100 μM to 2×10^−6 μM). Cells were infected at an MOI of 0.001 IU/cell with NL4-3/gp120 chimeric virus in quadruplicate. After 24 hours, viral inoculums were removed and replaced with media containing the appropriate MVC dilutions. Reverse transcriptase activity in supernatant was monitored as previously described on days 4 through 7 post infection.

For test [11], the system named is A74 passage control week 21 virus (PC.21). Briefly: Multiple cycle drug sensitivity assay in PBMC, virus PC.21. The test is classed as cell-based, HIV-1. As to the method: (§7) U87.CD4.CCR5 cells were obtained through the AIDS Research and Reference Reagent Program, Division of AIDS, NIAID, NIH. U87.CD4.CCR5 cells were maintained in DMEM supplemented with 10% FBS, 100 μg/mL penicillin/streptomycin, 300 μg/mL G418, and 1 μg/mL puromycin (Invitrogen, Carlsbad, Calif.). 293T cells were cultured in DMEM supplemented with 10% FBS and 100 μg/mL penicillin/streptomycin. Peripheral blood mononuclear cells (PBMCs) were obtained from whole blood extracted from a HIV negative donor by Ficoll-Paque centrifugation. PBMC cultures were stimulated with 1 μg/mL phytohemagglutinin (PHA; Gibco, Carlsbad, Calif.) for 48 hrs in RPMI 1640 medium (Gibco) containing 10% FBS and 100 μg/mL penicillin/streptomycin. Cells were maintained thereafter in RPMI 1640 medium with 10% FBS, 100 μg/mL penicillin/streptomycin, and […] interleukin-2 (IL-2; Gibco).
(§8) All assays were performed in triplicate.
(§9) Therefore, multiple cycle drug sensitivity assays were performed in peripheral blood mononuclear cells (PBMC) isolated from an HIV negative donor with PC.21 and MVC.21.

For test [12], the system named is A74 MVC treated week 21 virus (MVC.21). Briefly: Multiple cycle drug sensitivity assay in PBMC, virus MVC.21. The format is cell-based, HIV-1. As to the method:
as §7, §8, §9

Test [13] has as its system subtype B patient-derived MVC resistant virus R3. The settings on record: clone R3; single cycle conditions. As to the method:
(§10) For single replication cycle drug susceptibility assays, U87.CD4.CCR5 cells in 96-well format (1×10^4 cells/well) were pretreated for 2 hours with 10-fold dilutions of MVC (1 μM to 1×10^−7 μM) then infected in triplicate with luciferase encoding psuedovirus. After 48 hours, supernatant was removed and cells were lysed using 50 μL Glo lysis buffer (Promega, Madison, Wis.). Cells were lysed for 20 minutes at room temperature, transferred to white polystyrene 96 well plates, and read with a PerkinElmer VICTOR plate reader using injectors to introduce 50 μL Bright Glo reagent per well (Promega, Madison, Wis.). Luciferase activity was measured as relative light units (RLU).

The test system of test [14] is A74.MVC.21.132 psuedovirus. As to the method: as §10
The subject of test [15] is gp120 chimeric virus clone MVC.21.122.425K. As to the method: as §3
The subject of test [16] is CC1/85 MVC-resistant virus containing the T316 and V323 V3 loop mutations. Conditions: 1 μM MVC; cited from earlier work.
The test system of test [17] is gp120 chimeric virus clone PC.21.109. Here is the method:
as §3, §4

For test [18], the system named is gp120 chimeric virus clone PC.21.111. Here is the method: as §3, §4
The test system of test [19] is gp120 chimeric virus clone MVC.21.128. Here is the method:
as §3, §4

The subject of test [20] is gp120 chimeric virus clone MVC.21.119. As to the method: as §3, §4
Test [21] relates to gp120 chimeric virus clone MVC.21.122. The settings on record: U87.CD4.CCR5. As to the method:
as §3, §4

In test [22] the test system is gp120 chimeric virus clone MVC.21.123. As to the method:
as §3, §4

Test [23] concerns gp120 chimeric virus clone PC.1.1. Here is the method: as §3, §4
[24] abbreviates: highest MVC concentrations (4, 20, 100 μM).

`COc1ccnc2[nH]cc(C(=O)C(=O)N3CCN(C(=O)c4ccccc4)C[C@H]3C)c12` [BMS-806]: the inhibition in [1] (highest concentrations tested (50 and 5 μM), MVC.21) was determined as 98%; in test [2] (highest concentrations tested (50 and 5 μM), PC.21) it was 46%.
On to `Cc1ccc(-c2ccc3c(c2)C=C(C(=O)Nc2ccc(C[N+](C)(C)C4CCOCC4)cc2)CCC3)cc1.[Cl-]` [TAK-779], for which the “inhibition of virus replication” value in test [1] (10 μM (IC99 inhibitory concentration), MVC.21) is given as “cross resistance”; in test [2] (10 μM (IC99 inhibitory concentration), PC.21) it was “completely blocked”.
As for Maraviroc [MVC], the “rightward shift in IC50 compared with MVC sensitive clone A74.PC.21.109” value in test [3] (A74.MVC.21.132, multiple replication cycle conditions) came to 17 fold. For the same compound, the “IC50 fold change relative to input gp120 clone PC.1.1” value in test [3] (clone MVC.21.132) is on record as 10 fold; in test [19], 40 fold; in [20], 40 fold; in [22] it was 11 fold. Also, the MPI in test [3] (clone MVC.21.132) was over 95%; in test [9], 100%; in [11] it was 98%; in [12], 73%; in test [19] it was over 95%; in test [20] it was over 95%. Also, in test [22], the MPI is over 95%. The IC50 in test [3] (clone MVC.21.132, U87.CD4.CCR5) stood at 8.8 nM; in [1] (virus MVC.21) it was 216 nM; in [4] (B6 week 21 control culture), 8 nM; in test [5] (B6 week 21 inhibitor treated culture), 14 nM; in [6], 10 nM; in test [7], 2 nM. For the same compound, the IC50 was determined as 2 nM in test [8]; 5 nM in test [9]; 1 nM in test [2] (virus PC.21); 5 nM in [11]; 6 nM in [11] (read-out: IC50); 300 nM in test [12]. For the same compound, the 50% inhibitory concentration (IC50) was 33 nM in test [15] (U87.CD4.CCR5), 37 nM in test [19] (U87.CD4.CCR5), 34 nM in [20] (U87.CD4.CCR5) and 0.9 nM in test [21]. Also, the “MPI (maximal percent inhibition)” value was found to be 81% in test [1] (virus MVC.21, highest drug concentration tested 100 μM); 100% in [4] (virus B6.PC.21); 99% in [5] (virus B6.MVC.21); 99% in test [6]; 100% in test [2] (virus PC.21). The “maximal percent inhibition (MPI)” value was 61% in [10] and 56% in test [13]. The “resistance in single cycle assay” value in test [14] is given as “resistance could not be detected”. The “shift in IC50 relative to MVC.21.122” value in [15] is listed as 36 fold. Moreover, in test [16], the “level of replication in the presence of drug as compared to the absence of drug” value was 25%. For the same compound, the “sensitivity to MVC inhibition” value in test [17], in test [18] and in [23] was “sensitive” in each case. Further, the “inhibition (RT activity)” value in test [17] (setting [24]) was found to be 99.9%; in [20] (setting [24]) it was 97%.

Values taken from patent US11192949B2, “HIV-1 vaccine” (CASE WESTERN RESERVE UNIVERSITY, priority 2013, dated 2021).
